Assay results as given in patent US20070167412A1, “HALOCOMBSTATINS AND METHODS OF SYNTHESIS THEREOF” (ARIZONA BOARD OF REGENTS, priority 2003, published 2007).
≈ marks a conversion by molar mass, not a printed value.

Legend:
purified tubulin = test system: T1, purified tubulin; assay: inhibition of tubulin polymerization (turbidimetry); format: biochemical; conditions: 10 μM tubulin, GTP 0.4 mM, 30° C., extent after 20 minutes; read-out: Inhibition of polymerization IC50 ± S.D.
T1 construct: other: 10 μM tubulin, GTP 0.4 mM, 30° C., extent after 20 minutes
Method: (§1) Tubulin polymerization was evaluated by turbidimetry at 350 nm using Beckman DU7400/7500 spectrophotometers as described in detail elsewhere. […] Varying concentrations of drug were preincubated with 10 μM:M ([…]) purified tubulin (See Hamel, E., et al., Separation of Active Tubulin and Microtubule-associated Proteins by Ultracentrifiigation and Isolation of a Component Causing the Formation of Microtubule Bundles, Biochemistry 1984, 23, 4173-4184). Samples were chilled on ice, GTP (0.4 mM) was added, and polymerization was followed at 30° C. The parameter measured was extent of the reaction after 20 minutes. Coichicine binding was measured as described in detail previously. Reaction mixtures contained 1.0 μM :M tubulin, 5.0:M, [^3H]colchicine (from Dupont), and inhibitor at 1.0 μM:M. Incubation was for 10 minutes at 37° C.
Tubulin Evaluations: Tubulin polymerization was evaluated by turbidimetry at […] using Beckman DU7400/7500 spectrophotometers as known to one of skill in the art. Varying concentrations of the compound were preincubated with 10 μM. […]

Pancreas BXPC-3 = assay: human cancer cell growth inhibition, sulforhodamine B assay; format: cell-based; conditions: Table I; 48 hours
In short: (§2)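 Following the standard NCI SRB assay, cultures were treated for 48 h before trichloracetic acid fixation and dye staining.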

Lung-NSC NCI-H460 = assay: as above; format: cell-based; conditions: Table I; 48 hours
In short: as §2

CNS SF268 = assay: as above; format: cell-based; conditions: Table I; 48 hours
In short: as §2

Prostate DU-145 = assay: as above; format: cell-based; conditions: Table I; 48 hours
In short: as §2

Breast MCF-7 = assay: as above; format: cell-based; conditions: Table I; 48 hours
In short: as §2

Colon KM20L2 = assay: as above; format: cell-based; conditions: Table I; 48 hours
In short: as §2

tubulin = assay: inhibition of [3H]colchicine binding to tubulin; conditions: 1.0 μM tubulin, 5.0 μM [3H]colchicine, inhibitor at 1.0 μM, 10 minutes at 37° C.
Method: as §1

[1] = test system: microtubules in human umbilical vein endothelial cells (HUVEC); assay: disruption of microtubules in HUVEC; format: cell-based
Source text: HUVECs were isolated according to methods know to one of skill in the art (see Jaffe, E. A. et al., Culture of Human Endothelial Cells Derived From Umbilical Veins. Identification by Morphologic and Immunologic Criteria, J. Clin. Invest. 1973, 52, 2754-2756.)

Micrococcus luteus = assay: reference broth microdilution susceptibility assay; format: cell-based; conditions: Table III
In short: (§3)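 Susceptibility was tested by the reference broth microdilution method. Bacterial strains followed the NCCLS standard for aerobically growing bacteria (M7-A5), and yeasts followed the NCCLS broth dilution reference method for yeasts (M27-A).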

Streptococcus pneumoniae = assay: reference broth microdilution susceptibility assay; format: cell-based; conditions: Table III
In short: as §3

[2] = test system: Stenotrophomonas maltophilia; assay: reference broth microdilution susceptibility assay; format: cell-based; conditions: Table III
In short: as §3

Enterobacter cloacae = assay: reference broth microdilution susceptibility assay; format: cell-based; conditions: Table III
In short: as §3

Cryptococcus neoformans = assay: reference broth microdilution susceptibility assay; format: cell-based; conditions: Table III
In short: as §3

Neisseria gonorrhoeae = assay: reference broth microdilution susceptibility assay; format: cell-based; conditions: Table III
In short: as §3

Staphylococcus aureus = assay: reference broth microdilution susceptibility assay; format: cell-based; conditions: Table III
In short: as §3

Escherichia coli = assay: reference broth microdilution susceptibility assay; format: cell-based; conditions: Table III
In short: as §3

Candida albicans = assay: reference broth microdilution susceptibility assay; format: cell-based; conditions: Table III
In short: as §3

Enterococcus faecalis = assay: reference broth microdilution susceptibility assay; format: cell-based; conditions: Table III
In short: as §3

[3] = test system: human umbilical vein endothelial cells (HUVEC); assay: HUVEC growth inhibition, sulforhodamine B assay; format: cell-based
Method: (§4) In vitro Matrigel antiangiogenesis assays were implemented according to the Developmental Therapeutics Program NCI/NIH protocols known to one of skill in the art. Matrigel, a basement membrane matrix, was obtained from BD Biosciences. Growth inhibition and cord formation assays were Conducted using human umbilical vein endothelial cells obtained from GlycoTeCh. HUVEC cells were grown in EGM-2 medium.
The standard sulforhodamine B assay (see Cancer Cell Line Procedures above) was used to evaluate results using HUVEC cells. IC50 or ED50 (drug concentration causing 50% inhibition) was calculated from the plotted data.

KAT-4 = assay: human anaplastic thyroid carcinoma cell line inhibition; format: cell-based
Method: (§5) Inhibition of human cancer cell growth was assessed using the National Cancer Institute's standard sulforhodamine B assay. After 48 hours, the plates were fixed with trichloracetic acid, stained with sulforhodamine B and read with an automated microplate reader. A growth inhibition of 50% (GI50 or the drug concentration causing a 50% reduction in the net protein increase) was calculated from optical density data with Inmunosoft software. Inhibition of the mouse leukemia P388 cells was assessed in a 10% horse serum/Fisher medium soution for 24 hours, followed by a 48 hour incubation with serial dilutions of the compounds. Cell growth inhibition (ED50) was then calculated using a Z1 Becleman/Coulter particle counter.

SW1736 = assay: as above; format: cell-based
Method: as §5

[4] = test system: human umbilical vein endothelial cells (HUVEC); assay: Matrigel cord formation assay; format: cell-based; design: key: −: No Cords; +: Small; ++: ˜50% of Control; +++: Same as Control; conditions: 24 hours, compared to untreated controls
Method: as §4
(§6) An aliquot of sixty microliters was placed in each well of an ice-cold 96-well plate. The plates were then left for 15 minutes at room temperature, then incubated for 30 minutes at 37° C. to permit the matrigel to polymerize. Meanwhile, HUVEC cells were harvested and diluted to a concentration of 2×10^5 cells/ml. A solution of 100 μL containing the compounds to be tested was added next. After 24 hours incubation, pictures were taken for each concentration using an inverted Nikon Diaphot microscope and D100 digital camera. Drug effect was assessed, compared to untreated controls, by measuring the length of cords formed and number ofjunctions.

[5] = test system: human umbilical vein endothelial cells (HUVEC); assay: Matrigel cord formation assay; format: cell-based; design: key to Lengths of Cords: −: No Cords; +: Small; ++: ˜50% of Control; +++: Same as Control; conditions: 24 hours, compared to untreated controls
Method: as §4, §6

[6] = test system: human umbilical vein endothelial cells (HUVEC); assay: Matrigel cord formation assay; format: cell-based; design: key: −: No Junctions; +: Few; ++: ˜50% of Control; +++: Same as Control; conditions: 24 hours, compared to untreated controls
Method: as §4, §6

3-Cloro-4,4′,5-trimethoxy-3′-hydroxy-Z-stilbene [Compound 12a]
IC50 (purified tubulin): 1600 ± 300 nM
Human cancer cell line inhibition (GI50) Pancreas-a BXPC-3 (Pancreas BXPC-3): 0.043 µg/mL
Human cancer cell line inhibition (GI50) Lung-NSC NCI-H460 (Lung-NSC NCI-H460): <1 ng/mL
Human cancer cell line inhibition (GI50) CNS SF268 (CNS SF268): <1 ng/mL
Human cancer cell line inhibition (GI50) Prostate DU-145 (Prostate DU-145): <1 ng/mL
Human cancer cell line inhibition (GI50) Breast adn MCF-7 (Breast MCF-7): <1 ng/mL
Human cancer cell line inhibition (GI50) Colon KM20L2 (Colon KM20L2): 0.15 µg/mL
Inhibition of colchicine binding % inhibition ± S.D. (tubulin): 85 ± 4%
ability to disrupt microtubules in HUVEC [1]: disrupt microtubules
Range of minimum inhibitory concentration, Micrococcus luteus (Micrococcus luteus): 32 µg/mL
Range of minimum inhibitory concentration, Streptococcus pneumoniae (Streptococcus pneumoniae): 32 to 64 µg/mL
Range of minimum inhibitory concentration, Stenotrophomonas maltophilia [2]: * (no inhibition at 64 μg/ml)
Range of minimum inhibitory concentration, Enterobacter cloacae (Enterobacter cloacae): * (no inhibition at 64 μg/ml)
Range of minimum inhibitory concentration, Cryptococcus neoformans (Cryptococcus neoformans): 64 µg/mL
Range of minimum inhibitory concentration, Neisseria gonorrhoeae (Neisseria gonorrhoeae): 16 µg/mL
Range of minimum inhibitory concentration, Staphylococcus aureus (Staphylococcus aureus): * (no inhibition at 64 μg/ml)
Range of minimum inhibitory concentration, Escherichia coli (Escherichia coli): * (no inhibition at 64 μg/ml)
Range of minimum inhibitory concentration, Candida albicans (Candida albicans): * (no inhibition at 64 μg/ml)
Range of minimum inhibitory concentration, Enterococcus faecalis (Enterococcus faecalis): * (no inhibition at 64 μg/ml)

COc1ccc(/C=C\c2cc(I)c(OC)c(I)c2)cc1O [Compound 22a, 3,5-diiodo-4,4′-dimethoxy-3′-hydroxy-z-stilbene]
Relative % Growth ([3]; HUVEC, 0.00001 μg/ml): 87%
Relative % Growth ([3]; HUVEC, 0.0001 μg/ml): 84%
Relative % Growth ([3]; HUVEC, 0.001 μg/ml): 8%
Relative % Growth ([3]; HUVEC, 0.01 μg/ml): 4%
GI50 ([3]; Homo sapiens, HUVEC, Table V, read-out: Human Umbilical Vein Endothelial Cell (HUVEC) Inhibition Values (GI50)): 0.28 ng/mL (≈ 0.000551 µM)
GI50 (KAT-4; Homo sapiens, KAT-4): 0.039 to 0.063 µg/mL (≈ 0.0768 to 0.124 µM)
GI50 (SW1736; Homo sapiens, SW-1736): 1.2 µg/mL (≈ 2.36 µM)
Number of junctions ([4]; 0.0001 μg/ml): +++
Lengths of Cords ([5]; 0.0001 μg/ml): +++
Lengths of Cords ([5]; 0.001 μg/ml): +
Lengths of Cords ([5]; 0.01 μg/ml): −
Number of junctions ([6]; 0.01 μg/ml): −

Potassium 3,5-dilodo-4,4′dimethoxy-z-stilbene 3′-O-phosphate [Compound S (Table Ia)]
Relative % Growth ([3]; HUVEC, 0.0001 μg/ml): 96%
Relative % Growth ([3]; HUVEC, 0.001 μg/ml): 88%
Relative % Growth ([3]; HUVEC, 0.01 μg/ml): 33%
Relative % Growth ([3]; HUVEC, 0.1 μg/ml): 15%
Human Umbilical Vein Endothelial Cell (HUVEC) Inhibition Values (GI50) ([3]; Table V): 4.9 ng/mL
Human Anaplastic Thyroid Carcinoma Cell Line Inhibition Values (GI50) KAT-4 (KAT-4): 0.38 to 0.44 µg/mL
Human Anaplastic Thyroid Carcinoma Cell Line Inhibition Values (GI50) SW1736 (SW1736): >10 µg/mL
Number of junctions ([4]; 0.001 μg/ml): +++
Lengths of Cords ([5]; 0.001 μg/ml): +++
Lengths of Cords ([5]; 0.1 μg/ml): −
Number of junctions ([6]; 0.1 μg/ml): −

Potassium 3-iodo-4,4′,5-trimethoxy-z-stilbene 3′-O-phosphate [Compound 20c]
Relative % Growth ([3]; HUVEC, 0.00001 μg/ml): 95%
Relative % Growth ([3]; HUVEC, 0.0001 μg/ml): 77%
Relative % Growth ([3]; HUVEC, 0.001 μg/ml): 10%
Relative % Growth ([3]; HUVEC, 0.01 μg/ml): 1%
Human Umbilical Vein Endothelial Cell (HUVEC) Inhibition Values (GI50) ([3]; Table V): 0.25 ng/mL
Human Anaplastic Thyroid Carcinoma Cell Line Inhibition Values (GI50) KAT-4 (KAT-4): 0.37 to 0.43 µg/mL
Human Anaplastic Thyroid Carcinoma Cell Line Inhibition Values (GI50) SW1736 (SW1736): >10 µg/mL
Number of junctions ([4]; 0.00001 μg/ml): +++
Number of junctions ([4]; 0.0001 μg/ml): +++
Lengths of Cords ([5]; 0.00001 μg/ml): +++
Lengths of Cords ([5]; 0.0001 μg/ml): +++
Lengths of Cords ([5]; 0.001 μg/ml): ++
